Tests used:
[1] = system: neonatal rat cardiomyocytes (NRC); assay: Immunofluorescence of α-actinin: sarcomere structures (cardiac hypertrophy state) in drug-treated NRC; assay type: cell-based
Method: (§1) NRC prepared by a method similar to the method as described in (1) of Experiment 1 was moved to a glass culture plate (35 mm diameter) coated with poly-L-lysine, and was cultured over night (5% CO2 concentration, 37° C.) in DMEM without blood serum (manufactured by Nacalai Tesque). TPA was added to this to make a final concentration of 20 nM, and this was cultured a further 18 hours (5% CO2 concentration, 37° C.) (approximately 1×10^3 cells). After culturing, the cells obtained were rinsed 2 times with PBS, fixed by treating with 4 w/v % paraformaldehide for 30 minutes at room temperature, treated by soaking in PBS containing 0.25 v/v % Triton X-100 for 30 minutes at 4° C., and then incubated in blocking buffer solution (PBS containing 3 w/v % BSA, 2 v/v % FBS, 1 v/v % normal goat blood serum, and 0.03 v/v % Triton X-100).
(§2) This was rinsed 2 times in PBS, moved into PBS containing 0.3 v/v % Cy3-labeled anti-mouse IgG antibody, and 0.3 v/v % Cy2-labeled anti-rabbit IgG antibody (second antibody) (both manufactured by Amersham Pharmacia), and incubated for 1 hour at room temperature. The fluorescent signals of the cells were observed by a confocal laser scanning microscope LSM5 Pascal (manufactured by Carl Zeiss Inc.). Untreated NRC (None), which was not treated with TPA, was labeled with antibodies in the same manner as a contrast, and the results of observing the cell luminescence signals by confocal laser microscope (LSM5 Pascal) are indicated in FIG. 3B.
(§3) Specifically, NRC prepared by the same method as described above in (1) of Experiment 1 was moved to a glass culture plate (35 mm diameter) coated with poly-L-lysin, and was cultured over night (5% CO2 concentration, 37° C.) in DMEM without blood serum (manufactured by Nacalai Tesque). Five samples of the culture cells in question were used and added respectively to (1) 100 μM (final concentration, same hereinafter) NE (containing 2 μM propranol), (2) 100 μM AngII, (3) 20 nM LIF, (4) 100 μM NE (containing 2 μM propranol)+400 nM GF109203X (concretely, treated for 30 minutes by adding GF109203X, and then NE was added), (5) 20 nM LIF+400 nM GF109203X (concretely, treated for 30 minutes by adding GF109203X, and then LIF was added), and these were cultured a further 38 hours (5% CO2 concentration, 37° C.) (approximately 1×10^3 cells).
(§4) After culturing, the cells were rinsed 2 times with PBS, fixed by treating with 4 w/v % paraformaldehide for 30 minutes at room temperature, treated by soaking in PBS containing 0.25 v/v % Triton X-100 for 30 minutes at 4° C., and then incubated in blocking buffer solution (PBS containing 3 w/v % BSA, 2 v/v % FBS, 1 v/v % normal goat blood serum, and 0.03 v/v % Triton X-100). […] This was rinsed 2 times in PBS, moved into PBS containing 0.3 v/v % Cy3-labeled anti-mouse IgG antibody, and 0.3 v/v % Cy2-labeled anti-rabbit IgG antibody (second antibody) (both manufactured by Amersham Pharmacia), and incubated for 1 hour at room temperature. The fluorescent signals of the cells were observed by a confocal laser scanning microscope LSM5 Pascal (manufactured by Carl Zeiss Ltd.).

[2] = system: fully active PKD1 (phosphorylated PKD1); assay: Immunofluorescence: intracellular distribution of fully active PKD1 in drug-treated NRC; assay type: cell-based, rat; conditions: for full activation (phosphorylation) of PKD1 and movement to sarcomere Z-discs: 100 μM NE (containing 2 μM propranol), 100 μM AngII or 20 nM LIF
Method: as §1, §2, §3, §4

PKD1 [3] = assay: Immunoprecipitation kinase assay with Syntide-2 on PKD1 from drug-treated NRC; assay type: cell-based, rat; conditions: for phosphorylation activity of PKD1 (Syntide-2) relative to untreated NRC: NRC treated 20 minutes, 100 nM TPA, 100 μM NE (containing 2 μM propranol) or 20 nM LIF, n=9
Method: The ability of PKD1 to phosphorylate Syntide-2 (APLARTLSVAGLPGKK), which is a selective substance for PKD1, can be used as an index to assess PKD1 activity (Valverde, A. M., et al., Proc. Natl. Acad. Sci. USA, 91, 1994, p. 8572-8576).
Concretely, immunoprecipitation kinase assays using Syntide-2 as a substrate were conducted on the following NRC samples: NRC samples with cardiac hypertrophy induced by treating for 20 minutes respectively with (1) 100 nM TPA, (2) 100 μM NE, and (3) 20 nM LIF, and NRC samples treated for 20 minutes respectively with (4) 400 nM GF109203X (PKC inhibitor), (5) 20 nM TPA+400 nM GF109203X, (6) 100 μM NE+400 nM GF109203X, and (7) 20 nM LIF+400 nM GF109203X. The phosphorylation activity of PKD1 present in the various NRC samples was measured. In addition, as a control, the phosphorylation activity of PKD1 present in NRC that was not treated with anything (untreated NRC) was described and measured in the same way.
NRC prepared by the same method as described in (1) of Experiment 1 was cultured over night (5% CO2 concentration, 37° C.) in DMEM without blood serum (manufactured by Nacalai Tesque). To the cultured cells, (1) 100 nM TPA, (2) 100 μM NE (containing 2 μM propranol), (3) 20 nM LIF, (4) 400 nM GF109203X (PKC inhibitor), (5) 20 nM TPA+400 nM GF109203X, (6) 100 μM NE+400 nM GF109203X, and (7) 20 nM LIF+400 nM GF109203X were added respectively, and treated for 20 minutes. The cells obtained were treated with Lysis buffer solution A, and incubated for 60 minutes on ice together with anti-fully active PKD1 polyclonal antibody. This was treated with protein G Sepharose 4B, and protein bound to the resin (Protein G Sepharose 4B bound PKD1-anti-PKD1 antibody complex) was recovered. The PKD1 immunoprecipitate was rinsed 1 time in Lysis buffer solution A, and further rinsed 2 times with Lysis buffer solution A not containing NaF.
The PKD1 was eluted from PKD1 immunoprecipitate obtained by incubating in Lysis buffer solution A not containing NaF together with 100 μL of 0.5 mg/mL immunizing peptide. The immunizing peptide is an antigen peptide used in order to immunize test animals to create anti-fully active PKD1 polyconal antibody. When incubating this peptide with protein G Sepharose 4B bound PKD1-anti-PKD1 antibody complex, the aforementioned antigen peptide and the anti-PKD1 antibody bond, and as a result, PKD1 can be freed and obtained.
The eluted PKD1 (10 μL) was incubated for 5 minutes at 30° C. together with assay mixed solution (15 μL Tris/MgCl2 (100 mM Tris, 100 mM MgCl2), 5 μL ATP (800 μM), 0.2 μL ^32γ-ATP, and 40 μg Syntide-2). Next, the PKD1 phosphorylation activity was measured by liquid scintillation counter (n=9).

PKCε and PKD1 = assay: Immunoprecipitation assay and Western blotting for interaction of PKCε and PKD1 in NE-treated NRC; assay type: cell-based, rat; conditions: 100 μM NE (containing 2 μM propranol), versus NRC not treated with NE
Method: Primary NRC in culture prepared according to the method described in Experiment 1 (1) was treated with 100 μM NE (containing 2 μM propranol) in the same manner as in Experiment 3; the NE treated NRC in question was treated with Lysis buffer solution A; and 1 mL of cell extract (cell lysate) was obtained. […] of the cell extract was incubated for 60 minutes on ice together with anti-PKD1/2 monoclonal antibody; and this was then treated with protein G Sepharose 4B, and protein bound to the resin in question (anti-PKD1 antibody immunoprecipitate sample) was recovered. As indicated in experiment 1, no PKD2 was present in the NRC. Using anti-PKDε monoclonal antibody made in the same manner, anti-PKDε antibody immunoprecipitate sample was collected. As a control, 1 mL cell extract (cell lysate) of untreated NRC was obtained in the same way, and anti-PKDε antibody immunoprecipitate sample and anti-PKD1 antibody immunoprecipitate sample were prepared.
Next, Western blotting was conducted on the anti-PKCε antibody immunoprecipitate samples and the cell extract (cell lysate) obtained for the various NRC by using anti-PKD1/2 monoclonal antibody as the first antibody, and anti-mouse or anti-rabbit IgG bound with horseradish derived peroxidase (manufactured by Amersham Pharmacia) as the second antibody. […]

PKD1 [4] = assay: Western blotting of cytoplasm and cell membrane fractions of TPA-treated NRC; assay type: cell-based, rat; conditions: 100 nM TPA, 20 minutes, versus untreated
Method: The NRC prepared above was moved to non-serum DMEM (manufactured by Nacalai Tesque), and cultured overnight (5% CO2 concentration, 37° C.). Then, TPA was added to the culture to make a final concentration of 100 nM, and incubated for 20 minutes. Next, the cardiomyocytes were recovered and rinsed in PBS, subjected to bacteriolysis by treating with Lysis buffer solution (having the same composition as Lysis buffer solution A except that the Triton X-100 was 0.1%), centrifuged (15000 rpm, approximately 10 minutes), and fractioned into supernatant (cytoplasm fraction) and precipitate. The precipitate was further dissolved in Lysis buffer solution A. This was lightly separated by centrifuge, and the supernatant obtained was taken as the cell membrane fraction. As a control, NRC that was not treated with TPA was subjected to bacteriolysis, and the cytoplasm and cell membrane fractions were separated in the same manner as above (untreated substance). […]
Next, anti-mouse or anti-rabbit IgG bound with horseradish derived peroxidase (manufactured by Amersham Pharmacia) was used as the second antibody reagent, so that it is possible to observe the blotting results with chemical luminescence on X-ray film.

[5] = system: fully active PKD1 (phosphorylated PKD1); assay: Immunofluorescence: intracellular distribution of fully active PKD1 in drug-treated NRC; assay type: cell-based, rat; conditions: cardiomyocytes in which EGF was allowed to act
[6] = 400 nM GF109203X for 30 minutes, then 100 μM NE (containing 2 μM propranol), 38 hours
[7] = 38 hours, 100 μM NE (containing 2 μM propranol), 100 μM AngII or 20 nM LIF

## CN(C)CCCn1cc(C2=C(c3c[nH]c4ccccc34)C(=O)NC2=O)c2ccccc21 [GF109203X]
[1]; 400 nM GF109203X for 30 minutes, then 20 nM LIF, 38 hours
  effect on LIF-induced cardiac hypertrophy: a cardiac hypertrophy state was revealed
[1]; [6]
  effect on NE-induced cardiac hypertrophy: no cardiac hypertrophy is generated
[2]; [6]
  effect on NE-induced full activation of PKD1 and movement to sarcomere Z-discs: no fully activated PKD1 (phosphorylation) and no movement to sarcomere Z-discs were observed
PKD1 [3]; NRC, 20 minutes, 20 nM TPA+400 nM GF109203X
  intrinsic PKD1 activity with TPA plus PKC inhibitor: suppressed to the same level as that of the negative control
PKD1 [3]; NRC, 20 minutes, 100 μM NE+400 nM GF109203X
  intrinsic PKD1 activity with NE plus PKC inhibitor: suppressed to the same level as that of the negative control

## NC[C@H](O)c1ccc(O)c(O)c1 [NE, Norepinephrine]
[1]; [7]
  induction of cardiac hypertrophy (formation of sarcomere structures, visualization of Z-discs): induced cardiac hypertrophy
PKCε and PKD1
  formation of complex of PKCε and PKD1: complex of PKCε and PKD1 were formed
[2]; 38 hours
  full activation (phosphorylation) of PKD1 and movement to sarcomere Z-discs: PKD1 was fully activated (phosphorylated)
PKD1 [3]
  phosphorylation activity of PKD1 (Syntide-2) relative to untreated NRC: notably higher phosphorylation activity

## CCCCCCCCCCCCCC(=O)O[C@@H]1[C@@H](C)[C@@]2(O)[C@@H](C=C(CO)C[C@]3(O)C(=O)C(C)=C[C@@H]23)[C@H]2C(C)(C)[C@]12OC(C)=O [TPA, 12-0-tetradecanoylphorbol 13-acetate]
[1]; 20 nM TPA, 18 hours
  induction of cardiac hypertrophy (formation of sarcomere structures, visualization of Z-discs): cardiac hypertrophy was induced
[2]; 20 nM TPA, 18 hours
  activation of PKD1 and localization of fully active PKD1: the fully activated PKD1 moves to the sarcomere Z-disc region
PKD1 [3]
  phosphorylation activity of PKD1 (Syntide-2) relative to untreated NRC: notably higher phosphorylation activity
PKD1 [4]
  fully active PKD1 (phosphorylated PKD1) in cytoplasm and membrane fractions: present in large amounts in the membrane fraction

## Angiotensin II (DRVYIHPF; Angiotensin-2; UniProt P01019 25-32, looked up) [AngII, cardiac hypertrophy inducer]
[1]; [7]
  induction of cardiac hypertrophy (formation of sarcomere structures, visualization of Z-discs): induced cardiac hypertrophy
[2]; 38 hours
  full activation (phosphorylation) of PKD1 and movement to sarcomere Z-discs: PKD1 was fully activated (phosphorylated)

## Epidermal growth factor [EGF]
[5]
  full activation of PKD1 and movement to sarcomere Z-discs: also observed

## Leukemia inhibitory factor [LIF]
[1]; [7]
  induction of cardiac hypertrophy (formation of sarcomere structures, visualization of Z-discs): inducing cardiac hypertrophy
[2]; 38 hours
  full activation (phosphorylation) of PKD1 and movement to sarcomere Z-discs: no full activation (phosphorylation) of PKD1 and no movement of PKD1 to the vicinity of the sarcomere Z-discs
PKD1 [3]
  phosphorylation activity of PKD1 (Syntide-2) relative to untreated NRC: hardly different from that of untreated NRC

Source: patent US20070135365A1, “Pharmaceutical composition for preventing or remedying cardiac hypertrophy and cardiovascular disease caused thereby” (priority 2003, published 2007)
